What was measured:
Type in all cases: cell-based
AR protein = target: T1, AR protein (Homo sapiens, UniProt P10275, T878A); assay: Degradation of AR protein in LNCAP cells (Western blot, 8 h); conditions: LNCaP FGC cells
T1 construct: host or cells: LNCaP FGC
T1 sequence (P10275 1-920 T878A): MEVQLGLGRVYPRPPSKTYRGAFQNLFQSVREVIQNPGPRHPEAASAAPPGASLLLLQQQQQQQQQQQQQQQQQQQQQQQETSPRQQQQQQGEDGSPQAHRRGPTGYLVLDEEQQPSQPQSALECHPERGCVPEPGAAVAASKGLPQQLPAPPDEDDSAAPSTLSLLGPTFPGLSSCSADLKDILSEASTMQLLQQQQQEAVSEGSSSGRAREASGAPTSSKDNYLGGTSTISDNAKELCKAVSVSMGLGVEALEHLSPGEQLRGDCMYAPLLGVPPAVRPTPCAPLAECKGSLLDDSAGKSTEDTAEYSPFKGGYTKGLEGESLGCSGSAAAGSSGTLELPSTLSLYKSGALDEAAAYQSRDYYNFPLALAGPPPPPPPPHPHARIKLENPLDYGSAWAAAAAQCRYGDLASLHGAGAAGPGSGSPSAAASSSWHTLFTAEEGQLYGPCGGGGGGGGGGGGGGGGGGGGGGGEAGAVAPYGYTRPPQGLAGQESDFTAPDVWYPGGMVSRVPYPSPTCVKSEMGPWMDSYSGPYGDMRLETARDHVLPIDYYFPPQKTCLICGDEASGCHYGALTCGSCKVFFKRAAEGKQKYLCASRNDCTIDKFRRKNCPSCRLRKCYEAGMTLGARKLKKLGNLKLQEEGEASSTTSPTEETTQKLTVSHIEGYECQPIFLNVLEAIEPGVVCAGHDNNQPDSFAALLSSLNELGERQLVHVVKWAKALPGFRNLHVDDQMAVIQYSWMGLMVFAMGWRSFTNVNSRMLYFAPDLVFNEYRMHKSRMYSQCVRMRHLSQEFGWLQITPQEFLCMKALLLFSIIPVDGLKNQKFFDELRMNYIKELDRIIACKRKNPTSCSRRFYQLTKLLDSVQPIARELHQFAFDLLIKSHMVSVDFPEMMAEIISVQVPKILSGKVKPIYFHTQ
Procedure: After 8 h, the culture medium was discarded, and the cells were washed with PBS. After the cells were washed with PBS, RIPA lysis buffer containing 1% Protease Inhibitor Cocktail was added, and the total protein extract was obtained after lysis and centrifugation, and the protein concentration in the extract was detected by BCA method. Protein electrophoresis was carried out by SDS-PAGE, after which the proteins were transferred to PVDF (Millipore Sigma Catalog No. PSRP010R5) membrane by 100V constant voltage electrotransfer for 60 min, and the PVDF membrane was placed in 1×TBST solution with 5% milk and blocked at room temperature for 1h. […] The primary antibody solution was discarded, and the PVDF membrane was washed three times with 1× TBST for 5 min each. […] The secondary antibody solution was discarded, and the PVDF membrane was washed three times with 1× TBST for 5 min each. Western membrane imaging was performed using a dual-color infrared laser imaging system (Licor catalog number Odyssey CLX). Bands were analyzed in grayscale using the software Image Studio. For each sample, GAPDH protein bands were detected as internal reference. The degradation rates of the AR protein for the compounds and positive control sample were calculated based on the grayscale of the protein bands.

T-47D cells = assay: Inhibition of cell proliferation in T-47D cells (CCK-8, 6 days); conditions: 6 days of treatment, Table 2
Procedure, shortened: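 Viability read-out was CCK-8 after 6 days of compound treatment (37 °C, 5% CO2) across graded concentrations. Cells were T-47D seeded at 3,000 per well in 1640 medium plus 10% FBS. IC50 was calculated against proliferation.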

ERα [1] = target: T2, ERα (Homo sapiens, UniProt P03372); assay: Degradation of ERα in MCF-7 cells (immunoblotting, 4 h); conditions: 10nM compound
T2 sequence (P03372 1-595): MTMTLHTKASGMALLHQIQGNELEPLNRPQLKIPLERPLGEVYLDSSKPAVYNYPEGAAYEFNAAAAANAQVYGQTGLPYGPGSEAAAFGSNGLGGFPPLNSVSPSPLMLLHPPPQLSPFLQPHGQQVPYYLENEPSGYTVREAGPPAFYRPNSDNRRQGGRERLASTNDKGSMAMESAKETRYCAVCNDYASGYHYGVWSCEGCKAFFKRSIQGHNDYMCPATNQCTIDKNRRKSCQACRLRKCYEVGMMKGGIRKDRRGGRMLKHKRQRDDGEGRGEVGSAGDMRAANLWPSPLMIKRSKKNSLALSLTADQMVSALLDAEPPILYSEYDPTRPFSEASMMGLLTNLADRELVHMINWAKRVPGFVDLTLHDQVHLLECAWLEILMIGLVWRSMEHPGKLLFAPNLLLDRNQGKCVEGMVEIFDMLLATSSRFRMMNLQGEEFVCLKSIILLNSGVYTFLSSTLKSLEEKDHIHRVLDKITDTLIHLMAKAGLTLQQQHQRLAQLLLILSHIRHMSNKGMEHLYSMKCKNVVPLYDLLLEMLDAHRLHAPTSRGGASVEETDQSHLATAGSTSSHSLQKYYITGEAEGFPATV
Procedure, shortened: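 Degradation rate reflects ERα band intensity, corrected to an internal reference protein, relative to control. Values come from Western blotting of lysates from MCF-7 cells exposed 4 h at 37°C to compounds at final concentrations of 0.15-1000nM.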

ERα [2] = target: T2, ERα; assay: Degradation of ERα in T-47D cells (immunoblotting, 4 h); parameters: host or cells: T-47D
Procedure, shortened: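 ERα protein levels were assessed by immunoblot of RIPA lysates (with protease inhibitor) after 4 h exposure at 37°C. Compound was added in DMSO to T-47D cells at final concentrations of 0.15-1000 nM.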

MCF-7 cells = assay: Inhibition of cell proliferation of MCF-7 cells (CCK-8, 6 days); conditions: 6 days of treatment, Table 4
From the text: Test Example 3 Inhibitory effect of the PROTAC compounds provided in the present disclosure on cell proliferation of MCF-7 cells
The complete medium required for MCF-7 cells (source ATCC) was DMEM (gibco, Product number :11995-065) basal medium containing 10% fetal bovine serum. MCF-7 cells were inoculated in 96-well plates at a density of 800 cells/well, and different concentrations of the PROTAC compounds 1-55 provided in the examples of the present disclosure and a positive control sample ARV-471 (source: Innochem) were prepared to treat the cells, and the cells were treated at 37°C in a cell culture incubator with 5% CO2 for 6 days. Cell viability was detected using a CCK-8 kit (Beyotime, Product number: C0040) according to the manufacturer's instructions. The IC50 values of each PROTAC compound after 6 days of treatment were calculated using GraphPadPrism software based on the inhibition rate, and the results are shown in Table 4. Table 4 IC50 values for inhibition of the proliferation of MCF-7 cells by the PROTAC compounds of the present disclosure and positive control sample

| Compound | Degradation rates of the AR protein in LNCAP cells, 10 nM (%) (AR protein) | Degradation rates of the AR protein in LNCAP cells, 100 nM (%) (AR protein) | IC50 (T-47D cells) | Degradation rate (%) of ERα in MCF-7 cells (ERα [1]) | Degradation rate (%) of ERα in T-47D cells (ERα [2]; 10nM compound) | IC50 (MCF-7 cells) | Degradation rate (%) of ERα in T-47D cells (ERα [2]; 1nM compound) |
| --- | --- | --- | --- | --- | --- | --- | --- |
| C[C@H]1CC2(CCN(c3ccc(N4CCC(CN5CCC6(CC5)COc5cc7c(cc56)CN(C5CCC(=O)NC5=O)C7=O)CC4)cc3)CC2)CN1c1ccc(C#N)c(Cl)c1 (stereo partly drawn) [2-376] | 20% | 70% | – | – | – | – | – |
| C[C@H]1CC2(CCN(c3ccc(C(=O)N4CCC(CN5CCC6(CC5)COc5cc7c(cc56)CN(C5CCC(=O)NC5=O)C7=O)CC4)cc3)CC2)CN1c1ccc(C#N)c(Cl)c1 (stereo partly drawn) [2-384] | 48% | 63% | – | – | – | – | – |
| O=C1CCC(N2C(=O)c3cc4c(cc3C2=O)OC2(CC4)CCN(CC3CCN(c4ccc(C5c6ccc(O)cc6CCC5c5ccccc5)cc4)CC3)CC2)C(=O)N1 (stereo not drawn) [A1] | – | – | 8 nM | -17% | -11% | 49.5 µM | – |
| O=C1CCC(N2C(=O)c3cc4c(cc3C2=O)OC2(CC4)CCN(CC3CN(c4ccc(C5c6ccc(O)cc6CCC5c5ccccc5)cc4)C3)CC2)C(=O)N1 (stereo not drawn) [A6] | – | – | 177 nM | -17% | -23% | 48.2 µM | – |
| O=C1CCC(N2C(=O)c3cc4c(cc3C2=O)OC2(CC4)CCN(c3ccc(C4c5ccc(O)cc5CCC4c4ccccc4)cc3)CC2)C(=O)N1 (stereo not drawn) [A7] | – | – | 167 nM | -29% | -14% | 99.9 µM | – |
| O=C1CCC(N2C(=O)c3cc4c(cc3C2=O)OC2(CC4)CCN(C3CC4(CCN(c5ccc(C6c7ccc(O)cc7CCC6c6ccccc6)cc5)CC4)C3)CC2)C(=O)N1 (stereo not drawn) [A10] | – | – | 35 nM | -3% | -37% | 37.2 µM | – |
| O=C1CCC(N2C(=O)c3cc4c(cc3C2=O)OCC2(CCN(C3CC5(CCN(c6ccc(C7c8ccc(O)cc8CCC7c7ccccc7)cc6)CC5)C3)CC2)C4)C(=O)N1 (stereo not drawn) [A13] | – | – | 31 nM | -9% | 12% | 24.5 µM | – |
| O=C1CCC(N2C(=O)c3cc4c(cc3C2=O)OCC2(CCN(C3CCC5(CC3)CN(c3ccc(C6c7ccc(O)cc7CCC6c6ccccc6)cc3)C5)CC2)C4)C(=O)N1 (stereo not drawn) [A14] | – | – | 44 nM | 5% | 4% | 4.82 µM | – |
| O=C1CCC(N2C(=O)c3cc4c(cc3C2=O)OCC2(CCN(C3CCC5(CC3)CCN(c3ccc(C6c7ccc(O)cc7CCC6c6ccccc6)cc3)CC5)CC2)C4)C(=O)N1 (stereo not drawn) [A15] | – | – | 63 nM | -2% | 16% | 1.19 µM | – |
| O=C1CCC(N2C(=O)c3cc4c(cc3C2=O)C2(CCN(C3CCC5(CC3)CN(c3ccc(C6c7ccc(O)cc7CCC6c6ccccc6)cc3)C5)CC2)CO4)C(=O)N1 (stereo not drawn) [A20] | – | – | 25 nM | 18% | 36% | 11.6 µM | – |
| O=C1CCC(N2Cc3cc4c(cc3C2=O)CCC2(CCN(C3CCC5(CC3)CCN(c3ccc(C6c7ccc(O)cc7CCC6c6ccccc6)cc3)CC5)CC2)O4)C(=O)N1 (stereo not drawn) [A21] | – | – | 19 nM | 4% | -15% | 2.52 µM | – |
| O=C1CCC(N2Cc3cc4c(cc3C2=O)OC2(CC4)CCN(C3CCC4(CC3)CCN(c3ccc(C5c6ccc(O)cc6CCC5c5ccccc5)cc3)CC4)CC2)C(=O)N1 (stereo not drawn) [A22] | – | – | 57 nM | 13% | 19% | 0.94 µM | – |
| O=C1CCC(N2C(=O)c3cc4c(cc3C2=O)OC2(CCN(C3CCC5(CC3)CCN(c3ccc(C6c7ccc(O)cc7CCC6c6ccccc6)cc3)CC5)CC2)C4)C(=O)N1 (stereo not drawn) [A25] | – | – | 20 nM | 8% | -1% | 23.4 µM | – |
| O=C1CCC(N2Cc3cc4c(cc3C2=O)CCC2(CCN(CC3CN(c5ccc(C6c7ccc(O)cc7CCC6c6ccccc6)cc5)C3)CC2)O4)C(=O)N1 (stereo not drawn) [M1] | – | – | 117 nM | – | – | 44.1 µM | – |
| O=C1CCC(N2Cc3cc4c(cc3C2=O)OC2(CC4)CCN(C3CC4(C3)CN(c3ccc(C5c6ccc(O)cc6CCC5c5ccccc5)cc3)C4)CC2)C(=O)N1 (stereo not drawn) [M5] | – | – | 313 nM | – | – | 5.66 µM | – |
| O=C1CCC(N2Cc3cc4c(cc3C2=O)CCC2(CCN(C3CC5(CCN(c6ccc(C7c8ccc(O)cc8CCC7c7ccccc7)cc6)CC5)C3)CC2)O4)C(=O)N1 (stereo not drawn) [M6] | – | – | 11 nM | – | 54% | 4.38 µM | 22% |
| O=C1CCC(N2Cc3cc4c(cc3C2=O)OCC2(CCN(C3CC5(CCN(c6ccc(C7c8ccc(O)cc8CCC7c7ccccc7)cc6)CC5)C3)CC2)O4)C(=O)N1 (stereo not drawn) [M7] | – | – | 17 nM | – | 56% | 13.6 µM | 17% |
| O=C1CCC(N2Cc3cc4c(cc3C2=O)OC2(CC4)CN(C3CC4(CCN(c5ccc(C6c7ccc(O)cc7CCC6c6ccccc6)cc5)CC4)C3)C2)C(=O)N1 (stereo not drawn) [M8] | – | – | 22 nM | – | – | 51.7 µM | – |
| O=C1CCC(N2C(=O)c3cc4c(cc3C2=O)OCC2(CCN(CC3CN(c5ccc(C6c7ccc(O)cc7CCC6c6ccccc6)cc5)C3)CC2)C4)C(=O)N1 (stereo not drawn) [O1] | – | – | 130 nM | – | – | 53.6 µM | – |
| O=C1CCC(N2C(=O)c3cc4c(cc3C2=O)OC2(CC4)CCN(C3CC4(C3)CN(c3ccc(C5c6ccc(O)cc6CCC5c5ccccc5)cc3)C4)CC2)C(=O)N1 (stereo not drawn) [O3] | – | – | 202 nM | – | – | 86.8 µM | – |
